Source: the supplement of paper PMC11208160

Assay: recombinant barcode read abundance after kanamycin selection (control-corrected) (log10(CPM+1)); higher = more efficient recombination; sequences stand for … in AGTGCAGAGAAAATCGGCCAGTTTTCTCTGCCTGCAGTCCGCATGCCGT…AGATTTATGCAGCGGACTGCCTTTCTCCCAAAGTGATAAACCGGACAGTATCATGGACCGGTTTTCCCGGTAATCCGTATTTGCAAGGTTGGTTTCACT; site = the 11-nt target
In short: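 Recombination efficiency draws on barcodes counted at recombinant junctions in a pooled E. coli screen of targets paired with IS621 bridge RNA target-binding loops. The counts were converted to counts per million, averaged and corrected against the chloramphenicol/ampicillin LB agar control, then reported as log10(CPM+1). Selection plates held chloramphenicol/ampicillin/kanamycin with 0.1 mM IPTG, with two replicates per condition.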
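Note: IS621 recombinase and bridge RNA in Escherichia coli cells.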

Sequence | recombinant barcode read abundance (log10)
CTAAGCTCTTGGGTTCTAACCTGTTGCTC (site CTAAGCTCTAA) | 0.537
CTAAGCTCTTGGGTTCTAACCTGTTGCTC (site CTAAGCTCTCA) | 0.0828
CTAAGCTCTTGGGTTCTAACCTGTTGCTC (site CTAAGCTCTGA) | 1.03
CTAAGCTCTTGGGTTCTAACCTGTTGCTC (site CTAAGCTCTTA) | 0.119
CTAAGGTCTTGGGTTCTAACCTGTTGCCT (site CTAAGGTCTAA) | 0.745
CTAAGGTCTTGGGTTCTAACCTGTTGCCT (site CTAAGGTCTAC) | 0.122
CTAAGGTCTTGGGTTCTAACCTGTTGCCT (site CTAAGGTCTAG) | 0.923
CTAAGGTCTTGGGTTCTAACCTGTTGCCT (site CTAAGGTCTAT) | 0.222
CTAATACCTTGGGTTCTAACCTGTTGCGT (site CTAATACCTAC) | 1.04
CTAATACCTTGGGTTCTAACCTGTTGCGT (site CTCATACCTAC) | 0.0518
CTAATGTCTTGGGTTCTAACCTGTTGCCT (site CTAATGTCTAG) | 1.65
CTAATGTCTTGGGTTCTAACCTGTTGCCT (site CTAATGTCTTG) | 0.0145
CTAATTGCTTGGGTTCTAACCTGTTGCAA (site CTAATTGCTTT) | 0.0868
CTAATTGCTTGGGTTCTAACCTGTTGCAA (site CTACTTGCTTT) | 0.0139
CTAATTGCTTGGGTTCTAACCTGTTGCAA (site CTAGTTGCTTT) | 0.344
CTAATTGCTTGGGTTCTAACCTGTTGCAA (site CTATTTGCTTT) | 0.0237
CTACAATCTTGGGTTCTAACCTGTTGCAT (site CTACAATCTAA) | 0.192
CTACAATCTTGGGTTCTAACCTGTTGCAT (site CTACAATCTAT) | 1.51
CTACAATCTTGGGTTCTAACCTGTTGCTT (site CTACAATCTAA) | 1.17
CTACAATCTTGGGTTCTAACCTGTTGCTT (site CTACAATCTAT) | 0.816
CTACACCCTTGGGTTCTAACCTGTTGCTT (site CTACAACCTAA) | 0.0455
CTACACCCTTGGGTTCTAACCTGTTGCTT (site CTACACCCTAA) | 1.39
CTACACCCTTGGGTTCTAACCTGTTGCTT (site CTACAGCCTAA) | 0.296
CTACACCCTTGGGTTCTAACCTGTTGCTT (site CTACATCCTAA) | 0.22
CTACAGGCTTGGGTTCTAACCTGTTGCAC (site CTACAGGCTGT) | 1
CTACAGGCTTGGGTTCTAACCTGTTGCAC (site GAGTCTTCTTG) | 0.165

Sequence | recombinant barcode read abundance (log10)
CTACCACCTTGGGTTCTAACCTGTTGCCT (site CTACCAACTAG) | 0.16
CTACCACCTTGGGTTCTAACCTGTTGCCT (site CTACCACCTAG) | 1.8
CTACCACCTTGGGTTCTAACCTGTTGCCT (site CTACCAGCTAG) | 0.0722
CTACCACCTTGGGTTCTAACCTGTTGCCT (site CTACCATCTAG) | 0.214
CTACCATCTTGGGTTCTAACCTGTTGCCT (site CTACCAACTAG) | 0.0518
CTACCATCTTGGGTTCTAACCTGTTGCCT (site CTACCACCTAG) | 0.0894
CTACCATCTTGGGTTCTAACCTGTTGCCT (site CTACCAGCTAG) | 0.278
CTACCATCTTGGGTTCTAACCTGTTGCCT (site CTACCATCTAG) | 0.948
CTACCGTCTTGGGTTCTAACCTGTTGCGG (site CTACCATCTCG) | 0.285
CTACCGTCTTGGGTTCTAACCTGTTGCGG (site CTACCGTCTCC) | 1.97
CTACCTCCTTGGGTTCTAACCTGTTGCGT (site CTACCTCCTAC) | 1.16
CTACCTCCTTGGGTTCTAACCTGTTGCGT (site CTACTTCCTAC) | 0.37
CTACGAACTTGGGTTCTAACCTGTTGCTG (site CTACGAACTCA) | 1.53
CTACGAACTTGGGTTCTAACCTGTTGCTG (site CTACGCACTCA) | 0.167
CTACGAACTTGGGTTCTAACCTGTTGCTG (site CTACGGACTCA) | 0.102
CTACGAACTTGGGTTCTAACCTGTTGCTG (site CTACGTACTCA) | 0.142
CTACGTCCTTGGGTTCTAACCTGTTGCTG (site CTACGTCCTAA) | 0.0384
CTACGTCCTTGGGTTCTAACCTGTTGCTG (site CTACGTCCTCA) | 1.64
CTACGTCCTTGGGTTCTAACCTGTTGCTG (site CTACGTCCTGA) | 0.203
CTACGTCCTTGGGTTCTAACCTGTTGCTG (site CTACGTCCTTA) | 0.0883
CTACGTCCTTGGGTTCTAACCTGTTGCTT (site CTACGTCCTAA) | 1.04
CTACGTCCTTGGGTTCTAACCTGTTGCTT (site CTACGTCCTCA) | 0.14
CTACGTCCTTGGGTTCTAACCTGTTGCTT (site CTACGTCCTGA) | 0.297
CTACGTCCTTGGGTTCTAACCTGTTGCTT (site CTACGTCCTTA) | 0.0433
CTACGTTCTTGGGTTCTAACCTGTTGCCT (site CCACGTTCTAG) | 0.761
CTACGTTCTTGGGTTCTAACCTGTTGCCT (site CTACGTTCTAG) | 1.05

Sequence | recombinant barcode read abundance (log10)
CTACTAACTTGGGTTCTAACCTGTTGCAT (site CTACTAACTAA) | 0.173
CTACTAACTTGGGTTCTAACCTGTTGCAT (site CTACTAACTAC) | 0.149
CTACTAACTTGGGTTCTAACCTGTTGCAT (site CTACTAACTAG) | 0.268
CTACTAACTTGGGTTCTAACCTGTTGCAT (site CTACTAACTAT) | 1.34
CTACTAACTTGGGTTCTAACCTGTTGCTT (site CTACTAACTAA) | 0.316
CTACTAACTTGGGTTCTAACCTGTTGCTT (site CTACTAACTAC) | 0.0509
CTACTAACTTGGGTTCTAACCTGTTGCTT (site CTACTAACTAG) | 0.0714
CTACTAACTTGGGTTCTAACCTGTTGCTT (site CTACTAACTAT) | 0.0517
CTACTAGCTTGGGTTCTAACCTGTTGCAA (site CTACTAGCTAT) | 0.196
CTACTAGCTTGGGTTCTAACCTGTTGCAA (site CTACTAGCTCT) | 0.617
CTACTAGCTTGGGTTCTAACCTGTTGCAA (site CTACTAGCTGT) | 0.0288
CTACTAGCTTGGGTTCTAACCTGTTGCAA (site CTACTAGCTTT) | 1.25
CTAGACACTTGGGTTCTAACCTGTTGCGG (site CTAGACACTCC) | 2.14
CTAGACACTTGGGTTCTAACCTGTTGCGG (site CTGGTCACTCC) | 0.0881
CTAGACCCTTGGGTTCTAACCTGTTGCCT (site ATAGACCCTAG) | 0.347
CTAGACCCTTGGGTTCTAACCTGTTGCCT (site CTAGACCCTAG) | 1.95
CTAGACCCTTGGGTTCTAACCTGTTGCCT (site GTAGACCCTAG) | 0.223
CTAGACCCTTGGGTTCTAACCTGTTGCCT (site TTAGACCCTAG) | 0.0677
CTAGACTCTTGGGTTCTAACCTGTTGCTG (site CTAGACTCTAA) | 0.136
CTAGACTCTTGGGTTCTAACCTGTTGCTG (site CTAGACTCTCA) | 2.73
CTAGACTCTTGGGTTCTAACCTGTTGCTG (site CTAGACTCTGA) | 0.076
CTAGACTCTTGGGTTCTAACCTGTTGCTG (site CTAGACTCTTA) | 0.188
CTAGCCTCTTGGGTTCTAACCTGTTGCAT (site CTAACCTCTAT) | 0.739
CTAGCCTCTTGGGTTCTAACCTGTTGCAT (site CTACCCTCTAT) | 0.582
CTAGCCTCTTGGGTTCTAACCTGTTGCAT (site CTAGCCTCTAT) | 2.38
